US20160235068A1, “CONTROLLED RELEASE PARTICLES, PRODUCTION METHOD THEREOF, MOLDING MATERIAL, AND MOLDED ARTICLE” (priority 2013, published 2016)
Values after ≈ are worked out from the molar mass of the structure shown.

Key:
[1] = Alkali-resistance test (Test A), suspending agent of controlled release particles; type: physicochemical; conditions: 168 h, 0.05 %
Experimental: 1 mL of the diluted suspending agent was weighed in a glass bottle, and 4 mL of a saturated calcium hydroxide solution was added thereto, thereby preparing a test solution. The test solution was allowed to stand in a constant temperature of 40° C.
After 7 days from allowing the test solution to stand, 5 mL of acetonitrile was added to the test solution, the antibiotic compound was extracted, the amount of the antibiotic compound was determined with HPLC, and the remaining ratio of the antibiotic compound was calculated.

[2] = cited from earlier work

O=[N+]([O-])NC1=NCCN1Cc1ccc(Cl)nc1 [Imidacloprid, 1-(6-chloro-3-pyridylmethyl)-N-nitroimidazolidin-2-ylideneamine]
Alkali-resistance (Test A) Remaining ratio (%) of antibiotic compound [1]: 0%

CN/C(=N\[N+](=O)[O-])NCc1cnc(Cl)s1 [Clothianidin, (E)-1-(2-chlorothiazole-5-ylmethyl)-3-methyl-2-nitroguanidine]
solubility to water [2]: 330 µg/mL (≈ 1320 µM)
